According to patent US20100227836A1, “PARENTERAL ADMINISTRATION OF A GLUCOSAMINE” (THE JOHNS HOPKINS UNIVERSITY, priority 2008, published 2010):

How the values were obtained:
[1] = system: surgically manipulated rat knees (osteoarthritis); assay: Experimental model of osteoarthritis in rodents, intraarticular injection, cartilage histology (safranin-O); type: in vivo; conditions: 2 mM, transcutaneous intraarticular injections weekly for three weeks
Method: For example, in an experimental model of osteoarthritis in rodents, rat knees were surgically manipulated to obtain histological manifestations of osteoarthritis (Janusz et al., Osteoarth, Cart. 10:785-791, 2002). Four weeks […], injured joints were untreated, or treated with a PBS control, a 2 mM glucosamine solution or a 1:1 mixture of 2 mM glucosamine solution and CSMA-aldehyde (chondroitin sulfate methacrylate) (Wang et al., Nat. Mater. 6:385-392, 2007). Treatments were transcutaneous, intraarticular injections weekly for three weeks.

[2] = following nasogastric intake of 20 mg/kg/day of GlcN; cited from earlier work
[3] = system: cell growth, matrix production and gene expression; conditions: narrow window; cited from earlier work
[4] = system: transforming growth factor β1 (TGF-β1) expression; conditions: cited from earlier work

SMILES: N[C@H]1C(O)O[C@H](CO)[C@@H](O)[C@@H]1O (stereo partly drawn) [glucosamine, Glucosamine]
- cartilage development and organization across treatment groups [1]: best developed and well organized
- cartilage development in treated joints (histology, safranin-O) ([1]; four weeks after surgery, compared to PBS control and untreated control joints): Florid cartilage development
- level in serum [2]: ~6 µM
- level in synovial fluid [2]: ~0.5 µM
- concentration window with beneficial effect on cell growth, matrix production and gene expression [3]: no more than 2 mM
- TGF-β1 expression [4]: upregulated
